Source: US9949976B2, “Kinase inhibitor and use thereof” (Sihuan Pharmaceutical Holdings Group Ltd., priority 2013, dated 2018)

How the values were obtained:
Format in all cases: cell-based
JeKo-1 lymphoma cell = test: BrdU cell proliferation assay (PerkinElme kit); details: Homo sapiens, JeKo-1, 48 h; read-out: In vitro cell-inhibiting activity IC50 JeKo-1
Procedure: (§1) Experimental method: cell proliferation assay was carried out by BrdU method (BrdU cell proliferation assay kit, PerkinElme Company).
(§2) Preparation of gradient dilution solutions of test compound: the stock solution containing 5 mM test compound was diluted by DMSO to prepare a 2 mM solution, then was subjected to 4-fold stepwise dilution to 9 concentration gradients.
(§3) (1) Cells grown to exponential growth phase were digested with pancreatin, and centrifuged to collect the cells. The adherent cells were re-suspended in the corresponding culture medium, counted, and seeded to a 96-well plate; H358 cells and SW780 cells were seeded at 4000 cells/well/100 μL; PC3 cells were seeded at 1500 cells/well/100 μL; H441 cells were seeded at 6000 cells/well/100 μL. The plates were placed in a cell incubator at 37° C. After the cells adhered to the wall, the medium was replaced by serum-free medium. The suspended cells MV-4-11 and JeKo-1 were re-suspended with serum-free medium, counted, seeded to a 96-well plate by 10000 cells/well/100 μL and placed in a cell incubator overnight at 37° C. with 5% CO2.
(§4) (2) To each well, 99 μL growth medium containing 2×FBS was added, then 1 μL diluted 200× test compound was added to the well. The final concentration of the test compound was 10000, 2500, 625, 156.25, 39.06, 9.77, 2.44, 0.61, 0.15 or 0 nM, and the cells were cultured for 48 h at 37° C.
(§5) (3) To each well, 2 μL 100-fold BrdU labelled solution was added, and the culture medium was sucked by a vacuum pump after incubation in a cell incubator overnight and equilibrated at room temperature for 0.5 h.
(§6) (4) To each well, 100 μL fixing solution was added; the solution was discarded after incubation for 30 min at room temperature.
(§7) (5) To each well, 100 μL 1-fold BrdU-Eu detection antibody solution was added, the solution was discarded after incubation for 1 h at room temperature, and the well was washed with 1-fold washing liquor at 250 μL/well for 5 times.
(§8) (6) To each well, 200 μL of DELFIA Inducer was added and incubated for 15 min at room temperature. Value of fluorescence (Flu) was measured by ELISA instrument
(§9) (2) The data was processed by GraphPad Prism 6 software to get a curve and IC50 values.

[1] = system: PC3 prostatic cancer cell; test: BrdU cell proliferation assay (PerkinElme kit); details: 48 h; read-out: In vitro cell-inhibiting activity IC50 PC3
Procedure: as §1, §2, §3, §4, §5, §6, §7, §8, §9

[2] = system: SW780 bladder cancer cell; test: BrdU cell proliferation assay (PerkinElme kit); details: Homo sapiens, SW780, 48 h; read-out: In vitro cell-inhibiting activity IC50 SW780
Procedure: as §1, §2, §3, §4, §5, §6, §7, §8, §9

H441 lung cancer cell = test: BrdU cell proliferation assay (PerkinElme kit); details: Homo sapiens, NCI-H441, 48 h; read-out: In vitro cell-inhibiting activity IC50 H441
Procedure: as §1, §2, §3, §4, §5, §6, §7, §8, §9

H358 lung cancer cell = test: BrdU cell proliferation assay (PerkinElme kit); details: Homo sapiens, NCI-H358, 48 h; read-out: In vitro cell-inhibiting activity IC50 H358
Procedure: as §1, §2, §3, §4, §5, §6, §7, §8, §9

MV-4-11 leukemia cell = test: BrdU cell proliferation assay (PerkinElme kit); details: Homo sapiens, MV4-11, 48 h; read-out: In vitro cell-inhibiting activity IC50 MV-4-11
Procedure: as §1, §2
MV-4-11 medium: IMDM+10% FBS
as §3, with “CO2. […]” for “CO2.”
(6) To each well, 200 μL of DELFIA Inducer was added and incubated for 15 min at room temperature. Value of fluorescence (Flu) was measured by ELISA instrument […]

[3] = system: U87MG human glioblastoma cell; test: BrdU cell proliferation assay (Cell Signaling kit); details: U-87 MG, 72 h, read-out: In vitro cell-inhibiting activity IC50 U87MG
Procedure: (§10) Experimental method: cell proliferation assay was carried out by BrdU method (BrdU cell proliferation assay kit, Cell Signaling Technology Company).
(§11) Preparation of gradient dilution solutions of test compound: the stock solution containing 10 mM test compound was subjected to 4-fold stepwise dilution with DMSO to prepare solutions containing 2.5 mM, 625 μM, 156 μM, 39 μM, 9.8 μM, and 2.5 μM test compound, respectively. 2 μL DMSO-diluted compound was added to 198 μL culture medium containing 10% FBS to prepare […] test compound, wherein the maximum concentration of the test compound was 100 μM, the concentration of DMSO was 1%, and there were 7 concentration gradients.
U87MG medium: MEM+10% FBS
(§12) (1) Cells grown to 80% confluence (in exponential growth phase) were digested with pancreatin, and centrifuged to collect the cells. MDA-MB-435S and U87MG cells were re-suspended in FBS-free culture medium, counted, and seeded to a 96-well plate; MDA-MB-435S cells were seeded at 3000 cells/well/81 μL; U87MG cells were seeded at 4000 cells/well/81 MCF-7 cells were resuspended in culture medium containing 1% FBS, and counted and seeded to a 96-well plate, at 4000 cell/well/82 μL. The plates were placed in a cell incubator at 37° C. […]
(§13) (9) To each well, stop solution (100 μL) was added, and OD value at 450 nm was measured by ELISA instrument […]

[4] = system: MCF-7 human breast cancer cell; test: BrdU cell proliferation assay (Cell Signaling kit); details: MCF7, 72 h, read-out: In vitro cell-inhibiting activity IC50 MCF-7
Procedure: as §10, §11
MCF-7 medium: DMEM+10% FBS+0.01 mg/mL insulin
as §12, §13

[5] = system: MDA-MB-435S human melanoma cell; test: BrdU cell proliferation assay (Cell Signaling kit); details: 72 h, read-out: In vitro cell-inhibiting activity IC50 MDA-MB-435S
Procedure: as §10, §11
MDA-MB-435S medium: L-15+10% FBS+0.01 mg/mL insulin
as §12, §13

SMILES	IC50 (JeKo-1 lymphoma cell) [nM]	IC50 [1] [nM]	IC50 [2] [nM]	IC50 (H441 lung cancer cell) [nM]	IC50 (H358 lung cancer cell) [nM]	IC50 (MV-4-11 leukemia cell) [nM]	IC50 [3] [nM]	IC50 [4] [nM]	IC50 [5] [nM]
CCN1CCN(Cc2cnc(Nc3cc(-c4cc(F)c5nc(C)n(C(C)C)c5c4)c(F)cn3)nc2)CC1 [Compound 1, 5-((4-ethylpiperazin-1-yl)methyl)-N-(5-fluoro-4-(4-fluoro-1-isopropyl-2-methyl-1H-benzo[d]imidazol-6-yl)pyridin-2-yl)pyrimidin-2-amine]	37	260	162	148	291	139			
CCN1CCN(Cc2ccc(Nc3ncc(F)c(-c4cc(F)c5nc(C)n(C(C)C)c5c4)n3)nc2)CC1 [LY2835219, reference compound]							40	176	200
